From patent publication US20220304992A1, “METHODS OF REJUVENATING AGED TISSUE BY INHIBITING 15-HYDROXYPROSTAGLANDIN DEHYDROGENASE (15-PGDH)” (The Board of Trustees of the Leland Stanford Junior …, priority 2019, published 2022)
Entries after “also recorded” stand apart in the source; their conditions may differ.

Legend:
myofibers = test: Myofiber cross-sectional area and fiber typing by immunofluorescence; assay type: in vivo, mouse; settings: aged mice, 1 month
Procedure: We collected and prepared recipient Tibialis anterior (TA) or gastrocnemius (GA) muscle tissues for histology as previously described (5). We fixed transverse sections from muscles using 4% PFA, blocked and permeabilized using PBS/1% BSA/0.1% Triton X-100 and incubated with anti-LAMININ (Millipore, clone A5, catalog #05-206, 1:200) and then with AlexaFluor secondary Antibodies (Jackson ImmunoResearch Laboratories, 1:200) or wheat germ agglutinin-Alexa 647 conjugate (WGA, Thermo Fisher Scientific). We counterstained nuclei with DAPI (Invitrogen).
We acquired images on a Zeiss 510 laser scanning confocal microscope (Carl Zeiss Microimaging) with 40x/0.9N.A. objective to capture multiple consecutive focal planes or using the KEYENCE BZ-X700 all-in-one fluorescence microscope (Keyence) with 20x/0.75 N.A. objectives. We analyzed the myofiber area using the Keyence Advanced Analysis Software. For cross sectional area the maximum cross sectional area of the muscle was quantified or at least 10 fields of LAMININ-stained myofiber cross-sections encompassing over 400 myofibers were captured for each mouse as above. […] The researchers performing the imaging acquisition and scoring were unaware of treatment condition given to sample groups analyzed. […]
Images were acquired using KEYENCE BZ-X700 all in one fluorescence microscope with 20x/0.75 NA. objectives and individual fields were stitched and analyzed using Keyence Advanced Analysis Software.
For cultured myotubes we performed fixation using 4% PFA, blocking and permeabilization using PBS/1% BSA/0.1% Triton X-100 and staining with primary antibodies anti-MYH (Thermo Fisher Scientific, catalog #14-6503-82, clone MF-20, 1:500) and then with AlexaFluor secondary Antibodies (Jackson ImmunoResearch Laboratories, 1:500). […] We acquired images using the KEYENCE BZ-X700 all-in-one fluorescence microscope (Keyence) with 20x/0.75 N.A. objectives. We analyzed the fiber area using the Keyence Advanced Analysis Software. […] The researchers performing the imaging acquisition and scoring were unaware of treatment condition given to sample groups analyzed.

[1] = tested on: 15-PGDH overexpressing young muscles; assay type: in vivo, mouse
Procedure: Middle aged (18-20 mo.) and aged (>24 mo.) mice C57BL/6 were obtained the US National Institute on Aging (NIA) for aged muscle studies, and young (2-4 mo.) wild-type C57BL/6 mice from Jackson Laboratory. […] Time and distance to exhaustion was performed as previously described (4) for SW-treated mice and their controls.
Overexpression of Hpgd (15-PGDH) was achieved by integrating AAV9 under CMV promoter and with eGFP under IRES (AA9-CMV-m-HPGD-IRES-eGFP) (Vector Biolabs). The control virus was AAV9-tMCK-eGFP-WPRE.
The peak isometric torque (N·mm) of the ankle plantarflexors was assessed as previously described (21, 22). Briefly, the foot of anesthetized mice was placed on a footplate attached to a servomotor (model 300C-LR; Aurora Scientific). Two Pt-Ir electrode needles (Aurora Scientific) were inserted percutaneously and subcutaneously over the tibial nerve, just posterior/posterior-medial to the knee. The ankle joint was secured at a 90° angle. The peak isometric torque was achieved by varying the current delivered to the tibial nerve at a frequency of 200 Hz and a 0.1—ms square wave pulse. We performed three tetanic measurements on each muscle, with 1 min recovery between each measurement. Data were collected with the Aurora Scientific Dynamic Muscle Data Acquisition and Analysis Software.

[2] = 15-PGDH overexpressing young muscles, daily i.p.

CCCC[S+]([O-])c1sc2nc(-c3cccs3)cc(-c3ccccc3)c2c1N (stereo not drawn) [SW033291, 2-(butylsulfinyl)-4-phenyl-6-(thiophen-2-yl)thieno[2,3-b]pyridin-3-amine]
cross-sectional area of glycolytic (type IIb) fibers (myofibers): increase
cross-sectional area of oxidative (type IIa) fibers (myofibers): increase
myofiber cross-sectional area (myofibers; daily i.p., listed as SW): larger; also recorded: significantly augmented
mass of TA muscle [1, 2]: increased
strength (plantar flexion tetanic force) [1, 2]: increased
muscle atrophy induced by overexpression of 15-PGDH ([1]; young mice): rescued
